Experimental data reported in US10111847B2, “Compounds and methods for modulating vascular injury” (The Regents of the University of California, priority 2012, dated 2018).

Key:
[1] = tested on: VCAM-1; assay: VCAM-1 expression in TNFα treated VSMC, western blot; assay type: cell-based, human; conditions: 10 and 100 nM; TNFα 10 ng/ml 4 hr; P=0.20 compared to TNFα
Method: Mar-1. VSMCs and ECs were lysed in buffer (20 mM Tris-Hcl, 137 mM NaCl, 10% Glycerol, 1% NP-40) with protease and phosphatase inhibitors (Halt inhibitor capsules, Pierce, Inc) by sonication on ice. The lysates were instantly snap frozen in liquid nitrogen and thawed back later for western blotting. After centrifugation (15,000 g for 20 minutes), the whole cell extract (supernatant) was collected and was heated at 100° C. in Laemlli buffer for 6 minutes. Lysates were run on Mini-Protean TGX gels
(Biorad) and transferred on PVDF membranes which were probed with appropriate primary and secondary antibodies and visualized for quantitation using q-dot nanocrystals (Life Technologies, Inc).
FIGS. 15A-15D. Representative images of Calcein-AM labeled U937 monocytes adhered to human sv-VSMCs pretreated with vehicle (A, B) or 7S-Maresin-1 (C) or 7S-Maresin-1 and pertussis toxin (D) for 30 min, followed by TNFα at 10 ng/ml for 4 hr (B, C, D). (E) Quantitative analysis of U937 adhesion assay in human sv-VSMCs and (F) human sv-ECs (1 ng/ml TNFα used for EC cells). […] Bar graph represents net quantitative densitometry analysis. […] Expression of MCP-1 was measured by qRT-PCR, and normalized to unstimulated cells (n=3, results are mean±SEM, P<0.05 for Mar-1 (10 and 100 nM) vs TNF alone, unpaired t-test).

[2] = tested on: rabbit femoral arteries; assay: Rabbit femoral artery balloon injury, acute response at 3 days; assay type: in vivo, New Zealand White Rabbits
Method: All animal experiments are performed under a protocol approved by University of California San Francisco Animal Care Committee. New Zealand White Rabbits (NZWR, Western Oregon Rabbit Company, Philomath, Oreg.) weighing 3 to 5 kg and maintained on a normal chow diet are used in all experiments. Animals are anesthetized for surgical procedures with intramuscular injection of ketamine (25 mg/kg) and xylazine (5 mg/kg), and maintained with inhalation of isoflurane. The balloon injury model is made as described by Conte et al. “Efficient repopulation of denuded rabbit arteries with autologous genetically modified endothelial cells,” Circulation. 1994; 89:2161-2169. Rabbits undergo bilateral external iliac and femoral artery injury with 2F Fogarty balloon catheter (Applied Medical Resources Corp. Rancho Santa Margarita, Calif.). After balloon injury RvD2 (10 nM, Cayman chemical, Ann Arbor, Mich.) is infused to luminal area of the right femoral artery and control vehicle (normal saline with 0.1% ethanol) is infused to the left femoral artery, and then left undisturbed for 20 minutes. For evaluation of acute effects the rabbits are euthanized at 3 days after injury by intravenous overdose of sodium Nembutal. The femoral arteries are harvested and cryosection is made for immunohistochemistry, and total RNA from treated and control tissue is isolated. For evaluation of subacute responses regarding intimal hyperplasia the rabbits are euthanized at 28 days after injury and the tissue is perfusion-fixed in 10% formalin and processed as described by Conte et al. Arterioscler Thromb Vasc Biol. 2005; 25:2081-2087.
All the immunofluorescent staining is completed on 6-μm-thick frozen sections fixed by ice cold acetone for 10 minutes. Goat anti-mouse IgG conjugated with Alexa Fluor 488 or 568 (1:100, respectively, Invitrogen) is selected as secondary antibody. Anti-Ki67 (1:100, NCL-L-Ki67-MM1, Novocastra Laboratories, Newcastle upon Tyne, UK) is utilized for cell proliferation detection. […] The proportion of Ki67 is calculated by absolute positive cell number divided by DAPI positive nuclei. Leukocyte infiltration index is calculated as number of nuclei in CD45 positive area divided by total number of DAPI positive nuclei.
RvD1. […] Fluorescence was detected with TRITC filter allowing the detection of the DHE emission wavelength of 590-620 nm. The fluorescence lamp gain is standardized for all images and analyses. Fluorescence quantitation is performed using ImageJ analysis software (National Institute of Health, Bethesda, Md.). For VSMC the fluorescence intensity is determined for the DHE-stained control cells (no treatment control) from each experimental group and then individual treated cells from the same group are normalized to the corresponding value. […]

Row | Compound | VCAM-1 expression by Western blot [1] | Cell proliferation (Ki-67 staining index), % inhibition vs control ([2]; 10 nM intraluminal 20 minutes, 3 days after injury, P<0.01) | leukocyte infiltration (CD45 staining), % inhibition ([2]; 10 nM intraluminal 20 minutes, 3 days after injury, P<0.05) | TNF-α, MCP-1, and IL-1α expression in treated arteries vs vehicle (qPCR) ([2]; 10 nM intraluminal, 3 days after injury) | injury-induced ROS production (DHE staining), % inhibition ([2]; rabbit arteries 3 days after balloon injury, P<0.05)
1 | CC/C=C\C/C=C\C[C@H](O)\C=C/C=C/C=C/[C@@H](O)C/C=C\CCC(=O)O [7S-Maresin-1, 7S,14R-dihydroxydocosa-4Z,8E,10Z,12Z,16Z,19Z-hexaenoic acid] | inhibition of VCAM-1 expression | – | – | – | –
2 | CC/C=C\C[C@H](O)[C@H](O)/C=C/C=C/C=C\C=C\[C@@H](O)C/C=C\CCC(=O)O [RvD2, resolvin D2] | – | 51% | 41% | significant reductions | 43%
